Test results: patent publication US9593099B2, “Compounds and compositions as protein kinase inhibitors” (Array BioPharma, Inc., priority 2009, dated 2017)

Legend:
[1] = In Vivo Pharmacokinetics Assay in mouse
Experimental: In Vivo Pharmacokinetics Assay
(§1) Full pharmacokinetics study: Male Balb/c mice (n=3, body weights 22-25 g) or male Wistar rats (n=3, body weights 250-300 g) were administered the test compound intravenously via the lateral tail vein or orally via gavage. The formulation was typically a 2.5 mg/mL solution of the compound in 75% PEG300 and 25% D5W. Six blood samples of 50 μL each were collected serially for 24 h after dosing. The blood samples were centrifuged to separate the plasma. Plasma samples were analyzed and quantified by LC-MS/MS.
as §1, with “Rapid” for “Full”, “intravenously (IV)” for “intravenously”, “orally (PO)” for “orally”, “Blood” for “The blood”, “and plasma separated and pooled across” for “to separate”, “three animals at each time point per dose route.” for “plasma.”
For both full and rapid pharmacokinetics studies, the following parameters were calculated by non-compartmental regression analysis using Winnonlin 5.0 software (Pharsight, Mountain View, Calif., USA): plasma clearance (Cl), plasma maximum concentration (Cmax), plasma area-under-the-concentration-time-curve (AUC0-inf), and percent oral bioavailability (F %).

[2] = test system: p38α MAP Kinase; experiment: A549 p38α MAP Kinase Bright-Glo Reporter Gene Assay; type: cell-based; conditions: ratio of A549 p38 RGA IC50 to A375 CP IC50
Experimental: A549 p38α MAP Kinase Bright-Glo Reporter Gene Assay
A549 cells were stably-transfected with the IL-8 promoter driven reporter, pGL3-IL8-Luc. The cells were plated at 4×10^5/ml into 384-well solid white plates (40 ul/well, 5% CD-FBS, 1×P/S, DMEM) and were incubated overnight (18-20 hours) at 37° C. Test compounds were serially diluted in DMSO, then 50 nl of test solution was added to the incubation (final DMSO concentration of 0.1%). After incubating with test compound for 30 min, cells were stimulated with 1 ng/ml IL-1 beta (10 ul of 5 ng/ml solution per well). Bright-Glo (25 ul/well) was added to measure luciferase expression after 7-8 hours of stimulation.

[3] = Liver Microsomal Clearance Assay, human; type: in vitro ADME
Source text: Liver Microsomal Clearance Assay
The in vitro microsomal clearance assay is designed to assess potential risks associated with hepatic metabolic stability of compounds. […] These values may be scaled to predict hepatic metabolic clearance rate (CLh, mL/min/kg) and extraction ratio (ER, expressed as a ratio of the predicted hepatic metabolic clearance to hepatic blood flow in that species). In general, compounds with high predicted CLint or ER in vitro are considered to be at high risk for exposure-limiting metabolism in vivo.

[4] = test system: SW620 cells; experiment: SW620 Cell Viability Assay (Cell Titer Glo); type: cell-based; conditions: 9 serial dilutions between 10 and 0.002 μM, without MEK inhibitor
Experimental: The present invention also includes combinations of the BRaf inhibitors disclosed in this invention with other agents. In particular, the present invention provides for combinations with MEK1/2 inhibitors. FIG. 1 illustrates that the addition of a MEK small molecule inhibitor can reverse the induced ERK signaling, cell growth and transformation caused by a Raf small molecule inhibitor.
SW620 Cell Viability Assay
SW620 cells were seeded in 1640 RPMI+10% FBS at a density of 1500 cells per 96-well in black walled, clear bottom tissue culture treated plates. Test compounds were serially diluted in DMSO then added to the cells (final DMSO concentration of 0.1%) and incubated at 37° C. and 5% CO2 for 4 days. To measure cell viability, cell plates were brought to room temperature, culture media was removed, and 200 μl of Cell Titer-Glo reagent (Promega, kit components mixed as per the manufacturer's protocol then diluted 1:2 with growth media) was added to each well. Plates were shaken for 5 minutes, then incubated at room temperature for 5 minutes, and the luminescence was measured (Trilux, Perkin Elmer).

CCCS(=O)(=O)Nc1cc(Cl)cc(-c2nn(C(C)C)cc2-c2ccnc(NC[C@H](C)NC(=O)OC)n2)c1F [Compound 1, Methyl N-[(2S)-1-[(4-{3-[5-chloro-2-fluoro-3-(propane-1-sulfonamido)phenyl]-1-(propan-2-yl)-1H-pyrazol-4-yl}pyrimidin-2-yl)amino]propan-2-yl]carbamate]
F ([1]; PO/IV 5/2 mg/kg, n = 1): 46 (n = 1) %

CCCS(=O)(=O)Nc1ccc(F)c(-c2nn(C(C)C)cc2-c2ccnc(NC[C@H](C)NC(=O)OC)n2)c1F [Compound 7, Methyl N-[(2S)-1-[(4-{3-[2,6-difluoro-3-(propane-1-sulfonamido)phenyl]-1-(propan-2-yl)-1H-pyrazol-4-yl}pyrimidin-2-yl)amino]propan-2-yl]carbamate]
F ([1]; PO/IV 10/2 mg/kg): 8 ± 7%

CNc1nccc(-c2cn(C(C)C)nc2-c2cc(Cl)cc(NS(C)(=O)=O)c2F)n1 [Compound 29, N-(5-chloro-2-fluoro-3-{4-[2-(methylamino)pyrimidin-4-yl]-1-(propan-2-yl)-1H-pyrazol-3-yl}phenyl)methanesulfonamide]
(p38 RGA)/(A375) ratio [2]: 220

CCCS(=O)(=O)Nc1cccc(-c2nn(C(C)C)cc2-c2ccnc(NC[C@H](C)NC(=O)OC)n2)c1F [Compound 3, methyl N-[(2S)-1-[(4-{3-[2-fluoro-3-(propane-1-sulfonamido)phenyl]-1-(propan-2-yl)-1H-pyrazol-4-yl}pyrimidin-2-yl)amino]propan-2-yl]carbamate]
F ([1]; PO/IV 5/2 mg/kg, n = 1): 6 (n = 1) %

COC(=O)N[C@@H](C)CNc1nccc(-c2cn(C(C)C)nc2-c2c(F)ccc(NS(C)(=O)=O)c2F)n1 [Compound 6, methyl N-[(2S)-1-({4-[3-(2,6-difluoro-3-methanesulfonamidophenyl)-1-(propan-2-yl)-1H-pyrazol-4-yl]pyrimidin-2-yl}amino)propan-2-yl]carbamate]
ER (human) [3]: 0.69
F ([1]; PO/IV 10/2 mg/kg): 15 ± 3%

COC(=O)NC[C@H](C)Nc1nccc(-c2cn(C(C)C)nc2-c2cc(Cl)cc(NS(C)(=O)=O)c2F)n1 [Compound 32, Methyl N-[(2S)-2-({4-[3-(5-chloro-2-fluoro-3-methanesulfonamidophenyl)-1-(propan-2-yl)-1H-pyrazol-4-yl]pyrimidin-2-yl}amino)propyl]carbamate]
(p38 RGA)/(A375) ratio [2]: 91

COC(=O)N[C@@H](C)CNc1nccc(-c2cn(C(C)C)nc2-c2cccc(NS(C)(=O)=O)c2F)n1 [Compound 4, methyl N-[(2S)-1-({4-[3-(2-fluoro-3-methanesulfonamidophenyl)-1-(propan-2-yl)-1H-pyrazol-4-yl]pyrimidin-2-yl}amino)propan-2-yl]carbamate]
F ([1]; PO/IV 10/2 mg/kg): 36 ± 6%

COC(=O)N[C@@H](C)CNc1nccc(-c2cn(C(C)C)nc2-c2cc(Cl)cc(NS(C)(=O)=O)c2F)n1 [Compound 9, Methyl N-[(2S)-1-({4-[3-(5-chloro-2-fluoro-3-methanesulfonamidophenyl)-1-(propan-2-yl)-1H-pyrazol-4-yl]pyrimidin-2-yl}amino)propan-2-yl]carbamate]
ER (human) [3]: < 0.21
F ([1]; PO/IV 10/2 mg/kg): 43 ± 6%
effect on cellular proliferation (negative inhibition in FIG. 1) [4]: induction in cellular proliferation
